Where two headings read alike, the source gives them in different places.
What was measured:
PTSD [1] = conditions: average dose 2.4 mg; military veterans with PTSD taking or not taking antidepressant; cited from earlier work
[2] = fraction of the potency of clonidine; cited from earlier work
PTSD [3] = assay: Example 2 case summaries 7-9: switching from once to twice-daily dosing of tizanidine
Description: They were continued on aripiprazole, quetiapine, sertraline, and trazodone. Treatment with tizanidine was started for the nightmares and poor sleep.
They were switched from tizanidine 8 mg at bedtime to tizanidine 6 mg in the morning and 8 mg at bedtime. […] They continued on the sertraline, divalproex, and trazodone for initial insomnia. The tizanidine was switched to 4 mg in the morning and 4 mg at bedtime.
Subject was started on tizanidine up to 8 mg at bedtime for nightmares. They also were issued a device to assist with memory problems. A rating scale for common cognitive problems was administered by speech pathology prior to issuing them a personal digital assistant as a memory assist device.
They continued to take sertraline and tizanidine. At a psychology evaluation session, subject completed two self-report instruments of PTSD and depressive symptoms to establish a baseline indication of symptom severity. […] Subject was then switched from tizanidine 8 mg at bedtime to 4 mg twice daily.
After approximately one year of being followed in the psychiatry clinic, they became more willing to try medication and agreed to a trial of tizanidine.

[4] = cited from earlier work
PTSD [5] = conditions: Case 10
Source text: Given the prior history of ADHD, methylphenidate was cautiously added to the venlafaxine. […] They were referred to a specialty inpatient program for PTSD. During the inpatient program, the antidepressant was switched from venlafaxine to duloxetine.

PTSD [6] = assay: Example 1 case summaries 1-6: tizanidine as adjunctive treatment for PTSD, anxiety, depression, psychosis or impaired cognition; format: in vivo, human
Description: Treatment was begun with sertraline 100 mg per day for anxiety and nortriptyline 25 mg at bedtime for headaches. […] Treatment with tizanidine was started and the dose was increased to 8 mg at bedtime.
Tizanidine was started and titrated up to 4 mg at bedtime along with aripiprazole (15 mg at bedtime) and clonazepam (0.5 mg daily).
These medications included sertraline (250 mg daily), divalproex sodium (2500 mg daily), quetiapine (100 mg twice daily and 400 mg at bedtime), amitriptyline (25 mg at bedtime), and tramadol (50 mg as needed for severe headache). […] A trial of tizanidine was started and the dose was titrated up to 8 mg at bedtime.
Pharmacologic Treatment and Response: While on the psychiatry unit, they were treated with sertraline for PTSD and nortriptyline for headaches and depression. […] They were started on tizanidine 4 mg at bedtime.
After approximately one year, subject agreed to a trial of tizanidine as an addition to sertraline. […] They agreed to increase the dose to 4 mg at bedtime and follow-up in four weeks. […] An atypical antipsychotic medication, aripiprazole, was added to their medications.
Treatment with tizanidine 4 mg at bedtime was added to the existing sertraline.

[7] = Case 7, switched from tizanidine 8 mg at bedtime to 6 mg in the morning and 8 mg at bedtime, two months later
[8] = Case 7, tizanidine 4 mg twice daily, one month after switch
[9] = Case 7, tizanidine 8 mg at bedtime, four weeks
[10] = Case 8, tizanidine 4 mg twice daily, two weeks after switch
[11] = Case 9, trial of tizanidine, two months later
[12] = tizanidine 4 mg twice daily with methylphenidate, after four weeks
[13] = Case 2, tizanidine 4 mg at bedtime with aripiprazole 15 mg and clonazepam 0.5 mg, after two months
[14] = Case 2, tizanidine 8 mg at bedtime, other medications stopped, two months later
[15] = Case 3, tizanidine 8 mg at bedtime, after four weeks
[16] = Case 4, tizanidine 4 mg at bedtime
[17] = Case 5, tizanidine 2 mg at bedtime added to sertraline, several weeks
[18] = Case 5, tizanidine 4 mg at bedtime with sertraline, four weeks
[19] = Case 5, tizanidine 4 mg at bedtime, aripiprazole added, eight weeks later
[20] = Case 5, tizanidine 8 mg at bedtime, not taking sertraline and aripiprazole, eight weeks
[21] = Case 5, tizanidine 8 mg at bedtime, primary care appointment one month later
[22] = Case 6, tizanidine 4 mg at bedtime added to sertraline, approximately four weeks

N=C(N)NC(=O)Cc1c(Cl)cccc1Cl [guanfacine]
relieving signs or symptoms of PTSD compared to placebo (PTSD [1]): not effective compared to placebo

Clc1ccc2nsnc2c1NC1=NCCN1 [tizanidine]
potency in lowering blood pressure relative to clonidine [2]: one-tenth to one-fiftieth
daytime anxiety (PTSD [3]; [7]): greater reduction to their daytime anxiety
nightmares and sleep quality (PTSD [3]; [7]): no change to the beneficial impact
nightmares (PTSD [3]; Case 7, tizanidine 4 mg twice daily with sertraline, divalproex, trazodone, one month after switch): continued to have no nightmares
daytime anxiety (PTSD [3]; [8]): no change to daytime anxiety
daytime cognition (PTSD [3]; [8]): no change in daytime cognition
desire to smoke cigarettes (PTSD [3]; [8]): definite reduction in their desire to smoke
mood (PTSD [3]; [8]): no changes in mood
sleep (PTSD [3]; [8]): continued to have restful sleep
nightmares overall (PTSD [3]; Case 7, tizanidine 8 mg at bedtime with aripiprazole, quetiapine, sertraline, trazodone, four weeks): greatly reduced nightmares overall
anxiety during the day (PTSD [3]; [9]): significantly less anxiety during the day
combat-related nightmares (PTSD [3]; [9]): complete absence of combat-related nightmares
hallucinations (PTSD [3]; [9]): fewer hallucinations
tremor (PTSD [3]; [9]): improved tremor
sleep (PTSD [3]; Case 8, switched from tizanidine 8 mg at bedtime to 4 mg twice daily, two weeks later): no change in sleep
energy (new onset, gradually improving) (PTSD [3]; [10]): mild decrease in energy
hypervigilance during the day (PTSD [3]; [10]): reduced hypervigilance during the day
irritability during the day (PTSD [3]; [10]): less irritability during the day
nightmares (PTSD [3]; [10]): eliminates nightmares
feeling better the next day (PTSD [3]; Case 8, tizanidine 8 mg at bedtime with sertraline): significant improvement
cognitive function (PTSD [3]; Case 8, tizanidine up to 8 mg at bedtime with sertraline, memory assist device also issued, following weeks): improved
twice-daily compared to once-daily dosing (PTSD [3]; Case 9, tizanidine 4 mg twice daily versus 8 mg at bedtime, same total milligrams): clear superiority of twice-daily
cognitive symptoms (PTSD [3]; [11]): unchanged
headaches (PTSD [3]; [11]): much less intense
mood and energy (PTSD [3]; [11]): improved
sleep (PTSD [3]; [11]): better
anxiety (PTSD [3]; Case 9, trial of tizanidine, two months later, still startled easily and hypervigilant): less anxiety
peak serum levels ([4]; single 4 mg capsule): ~4.0 ng/mL
peak serum levels ([4]; single 4 mg tablet): about 2.7 ng/ml
nightmares (PTSD [5]; [12]): absence of nightmares
overall helpfulness (PTSD [5]; [12]): extremely helpful
sleep (PTSD [5]; [12]): greatly improved sleep
daytime anxiety (PTSD [5]; when taking tizanidine 4 mg twice daily): less daytime anxiety
daytime anxiety (PTSD [6]; Case 1, tizanidine 8 mg at bedtime, after two weeks): less daytime anxiety
reduction in nightmares (PTSD [6]; Case 1, tizanidine 8 mg at bedtime, after two weeks, subject report): ~50%
alcohol use (PTSD [6]; [13]): one to two
mood and energy (PTSD [6]; [13]): somewhat better
other signs and symptoms of Major Depression, PTSD, and Psychosis NOS (PTSD [6]; [13]): unchanged
overall condition (PTSD [6]; [13]): mildly improved
panic attacks (PTSD [6]; [13]): had not experienced any panic attacks
overall condition (PTSD [6]; Case 2, tizanidine 8 mg at bedtime, other medications stopped by subject, two months later): markedly improved
alcohol use (PTSD [6]; Case 2, tizanidine 8 mg at bedtime, other medications stopped, preceding two months): had not drunk any alcohol
daytime anxiety (PTSD [6]; [14]): less anxious during the day
energy (PTSD [6]; [14]): improved
hallucinations (PTSD [6]; [14]): had stopped
intrusive thoughts of combat or the Iraq war (PTSD [6]; [14]): less frequent
nightmares (PTSD [6]; [14]): much less frequent
panic attacks (PTSD [6]; [14]): able to leave their house without panic attacks
sleep (PTSD [6]; [14]): improved
combat-related nightmares (PTSD [6]; [15]): complete absence of combat-related nightmares
concentration and attention during the day (PTSD [6]; [15]): easier to concentrate
daytime anxiety (PTSD [6]; [15]): substantial decrease in daytime anxiety
nightmares overall (PTSD [6]; [15]): substantial reduction in nightmares overall
sleep (PTSD [6]; [15]): significantly improved
tremor, at rest and with action (PTSD [6]; [15]): improved
hallucinations (PTSD [6]; Case 3, tizanidine 8 mg at bedtime, after four weeks, quetiapine dose decreased by subject): greatly reduced
irritability and anxiety during the day (PTSD [6]; [16]): less irritable and less anxious
nightmares (PTSD [6]; [16]): reduced their nightmares
quality of sleep (PTSD [6]; [16]): improved the quality of their sleep
nightmares (PTSD [6]; Case 4, tizanidine 4 mg at bedtime, approximately three weeks after starting): somewhat improved
nightmares (PTSD [6]; [17]): no change to nightmares
side effects or other adverse effects (PTSD [6]; [17]): no side effects or other adverse effects
nightmares frequency (PTSD [6]; [18]): 3-4 times per week
overall condition (PTSD [6]; [18]): not doing well
panic attacks frequency (PTSD [6]; [18]): 2-3 times per week
alcohol use (PTSD [6]; [19]): one to two
mood and energy level (PTSD [6]; [19]): an improvement in their mood and energy level
overall improvement (PTSD [6]; [19]): limited improvement
remainder of PTSD and depressive symptoms (PTSD [6]; [19]): unchanged
panic attacks (PTSD [6]; Case 5, tizanidine 4 mg at bedtime, aripiprazole added, eight weeks later, for several weeks): free from panic attacks
side-effects (PTSD [6]; Case 5, tizanidine 4 mg at bedtime, eight weeks later): no side-effects
alcohol consumption (PTSD [6]; [20]): decreased to less than once per month
anxiety and energy during the day (PTSD [6]; [20]): less anxious and more energetic
nightmares (PTSD [6]; [20]): improved
overall improvement (PTSD [6]; [20]): substantial improvement
panic attacks (PTSD [6]; [20]): continued to be absent
anxiety (PTSD [6]; [21]): less anxiety
depression (PTSD [6]; [21]): improved depression
hallucinations (PTSD [6]; [21]): denied having any hallucinations
nightmares (PTSD [6]; [21]): decreased nightmares
feeling rested the next day (PTSD [6]; [22]): more rested the next day
night sweats (PTSD [6]; [22]): fewer night sweats
nightmares (PTSD [6]; [22]): reduction in their nightmares
overall sleep quality (PTSD [6]; [22]): improved
sleep time (PTSD [6]; [22]): had not increased their sleep time

— patent US20100298305A1, “TIZANIDINE FOR THE TREATMENT OF POST-TRAUMATIC STRESS DISORDER AND NIGHTMARES” (The United States Government, as represented by the …, priority 2008, published 2010)
